Four compounds from patent US9005314B2, “Biphenyl benzyl ether marker compounds for liquid hydrocarbons and other fuels and oils” (Dow Global Technologies LLC, priority 2010, dated 2015) can be followed below.

A word on the melting point: it is the temperature of the solid-liquid transition.

The nature of data set [1]: Laundering stability/extractability of marker in xylene solution, GC analysis versus un-laundered reference. The following applies: 8 hours; for Marker: 95:5 marked xylenes:agent, relative to control = 100; for Change %: versus control. Type of data set: physicochemical. How it is done: (§1) The stability and extractability of a representative marker was performed using xylene solutions containing between 100-1000 ppm maker and an equivalent amount of squalene internal reference standard using the following protocols:
Mix 95 parts marked xylenes with 5 parts laundering agent in a 100 mL vial. Mix gently for 8 hours using a magnetic stir bar. Stop mixing and remove a xylene solution aliquot. Analyze by GC and compare marker response to reference (un-laundered) sample.
(§2) Laundering Agents: • 1) 5% sulfuric acid • 2) 98% sulfuric acid • 3) 5% NaOH solution • 4) 50% NaOH solution To test for metal adsorptivity, 100 mL marked xylene tests solution is treated with 5 grams metal shavings at room temperature for 8 hours. GC analysis is again used to determine any loss of marker to the metal surface.

A short description of data set [2]: Metal adsorptivity: marked xylene treated with metal shavings, GC analysis. In kind it is physicochemical. Conditions: 100 mL marked xylene, 5 grams metal shavings, room temperature, 8 hours. The protocol:
as §1, §2

Each structure is given as a SMILES string.

For `Cc1ccccc1OCc1ccc(-c2ccc(COc3ccccc3C)cc2)cc1` [4,4′-bis(2-methylphenoxymethyl)-1,1′-biphenyl], the melting point amounted to 209 °C.
With `Cc1ccc(OCc2ccc(-c3ccc(COc4ccc(C)cc4)cc3)cc2)cc1` [4,4′-bis(4-methylphenoxymethyl)-1,1′-biphenyl], the melting point amounted to 206 °C.
With `c1ccc(OCc2ccc(-c3ccc(COc4ccccc4)cc3)cc2)cc1` [4,4′-bis(phenoxymethyl)-1,1′-biphenyl], the melting point worked out at 176 °C. Further, in data set [1] (5% H2SO4 laundering agent), the Marker was 85.51 and the Change % was −14.49%. In data set [1] (5% NaOH laundering agent), the Marker is 100.01 and the Change % is on record as 0.01%. Further, in data set [1] (50% NaOH laundering agent), the Marker stood at 101.85 and the Change % worked out at 1.85%. In addition, in data set [1] (98% H2SO4 laundering agent), the Marker amounted to 0.00 and the Change % was −100.00%. Also, in data set [2], the Change % entry is listed as “+4%” and the Marker was 104%.
With `CC(C)(C)c1ccc(OCc2ccc(-c3ccc(COc4ccc(C(C)(C)C)cc4)cc3)cc2)cc1` [Example 4, 4,4′-bis(4-t-butylphenoxymethyl)-1,1′-biphenyl], the melting point was found to be 218 °C.
